{"source": "patent US20180238860A1", "about": "“INDIVIDUAL METHOD PREDICTIVE OF THE DNA-BREAKING GENOTOXIC EFFECTS OF CHEMICAL OR BIOCHEMICAL AGENTS” (priority 2015, published 2018)", "key": {"HMEC cells [1]": {"system": "HMEC cells", "assay": "pH2AX foci 24 h after contacting, Table 4 lower part (HMEC endothelial cells)", "type": "cell-based, human", "details": "line cell blank (below Hasp), 24 hours after contacting", "procedure": "(§1) In one embodiment, on receipt, the tissue sample (typically the biopsy) is established in the form of an amplifiable cell line without a viral or chemical transformation agent according to an ancillary procedure well known to culture laboratories, as underlined by the publication of Elkind et al. “The radiobiology of cultured mammalian cell”, Gordon and Breach (1967). Once the number of cells is sufficient (typically after 1 to 3 weeks), the first experiments are carried out using the process according to the invention. A cell sample is prepared: The cells are inoculated on glass coverslips in Petri dishes. A portion of these coverslips are contaminated with metals or pesticides or any other DNA-breaking chemical or biochemical agent at different concentrations. A further portion is not contaminated; it represents the spontaneous state. During contamination, the cells remain in the culture incubator at 37° C.\nFor the contaminated cells, characteristics are acquired corresponding to the state after an incubation time with the DNA-breaking chemical or biochemical agent. Said characteristics are represented by foci corresponding to the marker pH2AX. The cells on glass coverslips are then fixed, lysed and hybridized. The following procedure, known per se (Bodgi et al, “A single formula to describe radiation-induced protein relocalization: towards a mathematical definition of individual radiosensitivity”, J Theor Biol. 21 p 333:135-45.2013):\n(§2) the cells are fixed in 3% paraformaldehyde and 2% sucrose for 15 minutes at ambient temperature and permeabilized in 20 mM HEPES buffer solution (4-(2-hydroxyethyl)-1-piperazine ethane sulfonic acid) at pH 7.4, 50 mM NaCl, 3 mM MgCl2, 300 mM sucrose, 0.5% Triton X-100 (a non-ionic surfactant having the formula t-Oct-C6H4-(OCH2CH2)×OH where x=9-10, CAS No. 9002-93-1, supplied for example by Sigma Aldrich) for 3 minutes. The glass coverslips are then washed in phosphate buffer saline (known as the acronym PBS) before immunological staining. The incubation took place for 40 min at 37° C. in PBS supplemented with 2% bovine serum albumin (known as the acronym BSA or fraction V, supplied for example by Sigma Aldrich) and was followed by a wash with PBS. Anti-pH2AX primary antibodies are used at a concentration of 1:800. The incubations with anti-mouse FITC or anti-rabbit TRITC secondary antibodies (1:100, supplied by Sigma Aldrich) were performed at 37° C. in 2% BSA for 20 minutes. Glass coverslips were treated with Vectashield™ containing DAPI (4,6-Diamidino-2-phenylindole) to label the nucleus. Staining with DAPI also makes it possible, indirectly, to determine the number of cells in phase G1 (nuclei with homogenous DAPI staining), in phase S (nuclei with numerous pH2AX foci), in phase G2 (nuclei with heterogeneous DAPI staining) and metaphases (visible chromosomes).\nThe results are acquired using these coverslips on an immunofluorescence microscope (Olympus model for example). The reading may be direct (typically by counting the foci on at least 50 cells in G0/G1 for each point) or using dedicated image analysis software, or on an automated microscope; preferably the software or automated microscope methods are calibrated with manual determinations.\n(§3) The tables hereinafter summarize the results of numerous experiments which were carried out as described in the “Detailed description” section above.\n(§4) In tables 3 and 4, “pH2AX” corresponds to the mean number of nuclear foci obtained with the marker pH2AX, 24 hours after contacting the cell sample with the chemical agent at the concentration C (NpH2AX(24 h, C)), and where “Micronuclei” corresponds to the mean number of micronuclei observed per 100 cells 24 hours after contacting the cell sample with the chemical agent at the concentration C(NMN(24 h, C))."}, "HMEC cells [2]": {"system": "HMEC cells", "assay": "Micronuclei per 100 cells 24 h after contacting, Table 4 lower part (HMEC)", "type": "cell-based, human", "details": "line cell blank (below Hasp)", "procedure": "as §1, §2\nCounterstaining with DAPI (a DNA marker known to those skilled in the art) makes it possible to locate the nucleus to situate the cytoplasmic or nuclear location to quantify the micronuclei, which are complementary cell markers to the data on the foci.\nas §3, §4"}, "[3]": {"system": "pH2AX nuclear foci (DNA double-strand breaks)", "assay": "Single toxicity scale: reference concentration Cref and risk group prediction from NpH2AX(24 h)", "type": "cell-based, human", "details": "for Reference concentration Cref: NpH2AX(24 h) < 2; for Prediction based on algorithm: concentration above which “Group III” risk: NpH2AX(24 h) > 8", "procedure": "(i) if the reference concentration has not previously been determined by the chemical or biochemical agent to be studied, a cell sample is prepared by dispersion and/or amplification of so-called reference cells (sensitivity group I); a plurality of concentrations within a broad concentration range of said breaking agent (said concentration range ranging for example from nM to mM) is applied for a predetermined period of time (preferably 24 hours) on this cell sample; pH2AX immunofluorescence is performed with DAPI counterstaining which also enables on the same cell sample the analysis of micronuclei for all the concentrations applied.\n(ii) Either the mean number of nuclear foci observed with the marker pH2AX at the observation times t and at the concentration C (this mean number being referred to as NpH2AX(t, C)), or the mean number of micronuclei per 100 cells at the observation times t and at the concentration C (this mean number being referred to as NMN(t, C)), or the standard error a corresponding to the error committed on these respective measurements which must be performed on at least 50 nuclei once (Gaussian standard error) or 3 independent experiments of 50 nuclei (standard error of the mean).\n(iii) The so-called reference concentration Cref is the concentration giving:\nNpH2AX(24 h,Cref)+2σ=2 or indeed NMN(24 h,Cref)+2σ=2%;\nIf for the cell sample NpH2AX(24 h, Cref)<=2 or NMN(24 h, Cref)<=0.5%, preferably NMN(24 h, Cref)<=1% or even more preferentially NMN(24 h, Cref)<=2%, then the genotoxic risk is considered to be low or described as “Group I”\nThe experimental data presented in table 4 above were used to determine the reference concentration Cref particularly for Pb(NO3)2 (Cref<1 μM) and CdCl2 (Cref=10 μM).\nTable 5 presents numerical examples of correspondence between the single toxicity scale according to the invention and the corresponding clinical signs."}, "humans exposed": {"system": "humans exposed", "details": "cited from earlier work"}}}
{"smiles": "O=[N+]([O-])[O-].O=[N+]([O-])[O-].[Pb+2]", "note": "[Pb(NO3)2]", "values": [{"measurement": "pH2AX", "setting": "HMEC cells [1]; 10 μM", "result": 4, "unit": "foci"}, {"measurement": "pH2AX", "setting": "HMEC cells [1]; 30 μM", "result": 7.5, "unit": "foci"}, {"measurement": "pH2AX", "setting": "HMEC cells [1]; 100 μM", "result": 15, "unit": "foci"}, {"measurement": "pH2AX", "setting": "HMEC cells [1]; 300 μM", "result": 21, "unit": "foci"}, {"measurement": "Micronuclei", "setting": "HMEC cells [2]; 10 μM", "result": 0, "unit": "per 100 cells"}, {"measurement": "Micronuclei", "setting": "HMEC cells [2]; 30 μM", "result": 7, "unit": "per 100 cells"}, {"measurement": "Micronuclei", "setting": "HMEC cells [2]; 100 μM", "result": 12, "unit": "per 100 cells"}, {"measurement": "Micronuclei", "setting": "HMEC cells [2]; 300 μM", "result": 20, "unit": "per 100 cells"}, {"measurement": "Micronuclei", "setting": "HMEC cells [2]; 1000 μM", "result": 10, "unit": "per 100 cells"}, {"measurement": "Reference concentration Cref", "setting": "[3]; determined from data of table 4", "result": "< 1", "unit": "µM"}, {"measurement": "Reference concentration Cref", "setting": "[3]; determined from data of table 4, listed as Lead", "result": "<1", "unit": "µM"}, {"measurement": "Prediction based on algorithm: concentration above which “Group III” risk", "setting": "[3]", "result": "> 30", "unit": "µM"}, {"measurement": "Onset of signs of saturnism, concentration in blood", "setting": "humans exposed; clinical effects observed", "result": "Onset of signs of saturnism above 100 μg/l of μg/l of blood"}, {"measurement": "Onset of signs of saturnism, corresponding concentration", "setting": "humans exposed; clinical effects observed, corresponding to 100 μg/l of blood", "result": "blood corresponding to approximately 2 μM"}]}
{"smiles": "[Na+].[Na+].[O]=[Cr](=[O])([O-])[O-]", "note": "[Chromium, Na2CrO4]", "values": [{"measurement": "Reference concentration Cref", "setting": "[3]", "result": 0.003, "unit": "µM"}, {"measurement": "Prediction based on algorithm: concentration above which “Group III” risk", "setting": "[3]", "result": "predicted above 30 nM"}, {"measurement": "Cases of poisoning, concentration in tap water (estimated)", "setting": "humans exposed; Hinkley USA", "result": "concentration in tap water was estimated at 23 Nm"}, {"measurement": "Cases of poisoning, concentration in well water", "setting": "humans exposed; Hinkley USA", "result": 1.19, "unit": "g/L"}, {"measurement": "Cases of poisoning, concentration in well water, equivalent", "setting": "humans exposed; Hinkley USA", "result": 4.6, "unit": "mM"}]}
